According to US20240083857A1, “2-Methyl-Quinazolines” (Bayer Pharma Aktiengesellschaft, priority 2017, published 2024):
Like-named read-outs stand apart in the source and are kept apart here.

Assays:
[1] = molecular target: human SOS1 (nucleotide exchange of K-Ras^G12C) (Homo sapiens, UniProt Q07889); experiment: Biochemical assay 2: K-Ras^G12C activation assay by hSOS1 at high GTP concentration (HTRF); conditions: for inhibition at 20 µM: read-out: Assay 2 (KRAS-Activation by SOS high GTP) activity expressed as % inhibition at 20 μM
[2] = molecular target: K-Ras^G12C : hSOS1 interaction (Homo sapiens, UniProt Q07889); experiment: Biochemical assay 1: K-Ras^G12C interaction assay with hSOS1 (HTRF); assay type: binding; conditions: for IC50: E-notation values, unit inferred, read-out: Assay 1 (KRAS-SOS interaction) IC50; for inhibition at 20 µM: read-out: Assay 1 (KRAS-SOS Interaction) activity expressed as % inhibition at 20 μM
[3] = E-notation values, unit inferred, 50 μM GTP, read-out: Assay 2 (KRAS-Activation, high GTP) IC50
[4] = high GTP, read-out: Assay 2 (KRAS-Activation by SOS high GTP) activity expressed as IC50

Structure (SMILES) | IC50 [1, 3] | IC50 [2] | inhibition at 20 µM ([1]; high GTP) | inhibition at 20 µM [2] | IC50 [1, 4]
COc1cc2nc(C)nc(NC(C)c3ccc(-c4ccccc4CN(C)C)s3)c2cc1OC (single isomer, unassigned) [Example 390, N-[1-(5-{2-[(dimethylamino)methyl]phenyl}thiophen-2-yl)ethyl]-6,7-dimethoxy-2-methylquinazolin-4-amine] | 6250 nM | 5000 nM |  |  | 
COc1cc2nc(C)nc(NC(C)c3ccc(-c4ccccc4CN(C)C)s3)c2cc1OC (single isomer, unassigned) [Example 391, N-[1-(5-{2-[(dimethylamino)methyl]phenyl}thiophen-2-yl)ethyl]-6,7-dimethoxy-2-methylquinazolin-4-amine] | 36.7 nM | 15.5 nM |  |  | 
COc1cc2nc(C)nc(NC(C)c3ccc(=O)[nH]c3)c2cc1OC (single isomer, unassigned; enantiomer 1) [Example 227, 5-{1-[(6,7-dimethoxy-2-methylquinazolin-4-yl)amino]ethyl}pyridin-2(1H)-one, Enantiomer 1] |  |  | 24% | 48% | 
COc1cc2nc(C)nc(NC(C)c3c(C)ccc4[nH]ncc34)c2cc1OC (centres unmarked) [Example 7, 6,7-dimethoxy-2-methyl-N-[1-(5-methyl-1H-indazol-4-yl)ethyl]quinazolin-4-amine] |  |  | 18% | 44% | 
COc1cc2nc(C)nc(NC(C)c3ccc(-n4ccc(CCO)n4)o3)c2cc1OC (centres unmarked) [Example 226, 2-[1-(5-{1-[(6,7-dimethoxy-2-methylquinazolin-4-yl)amino]ethyl}furan-2-yl)-1H-pyrazol-3-yl]ethanol] |  |  | 37% | 43% | 
COc1cc2nc(C)nc(NC(C)c3ccc(C4=CCCC4)s3)c2cc1OC (centres unmarked) [Example 231, N-{1-[5-(cyclopent-1-en-1-yl)thiophen-2-yl]ethyl}-6,7-dimethoxy-2-methylquinazolin-4-amine] |  |  | 53% | 56% | 
COc1cc2nc(C)nc(NC(C)c3ccc(-c4ccc(CNC(=O)OC(C)(C)C)o4)s3)c2cc1OC (centres unmarked) [Example 236, tert-butyl {[5-(5-{1-[(6,7-dimethoxy-2-methylquinazolin-4-yl)amino]ethyl}thiophen-2-yl)furan-2-yl]methyl}carbamate] |  |  |  | 37% | 3820 nM
COC(=O)c1cc(-c2ccc(C(C)Nc3nc(C)nc4cc(OC)c(OC)cc34)s2)nn1C (centres unmarked) [Example 237, methyl 3-(5-{1-[(6,7-dimethoxy-2-methylquinazolin-4-yl)amino]ethyl}thiophen-2-yl)-1-methyl-1H-pyrazole-5-carboxylate] |  |  | 32% | 31% | 
COc1cc2nc(C)nc(NC(C)c3ccc(-c4ccc(F)cc4CNC(=O)c4cc5ccccc5[nH]4)s3)c2cc1OC (centres unmarked) [Example 296, N-[2-(5-{1-[(6,7-dimethoxy-2-methylquinazolin-4-yl)amino]ethyl}thiophen-2-yl)-5-fluorobenzyl]-1H-indole-2-carboxamide] |  |  | 48% | 34% | 
COc1cc2nc(C)nc(NC(C)c3ccc(-c4ccccc4CN4CCN(C(=O)OC(C)(C)C)CC4)s3)c2cc1OC (centres unmarked) [Example 306, tert-butyl 4-[2-(5-{1-[(6,7-dimethoxy-2-methylquinazolin-4-yl)amino]ethyl}thiophen-2-yl)benzyl]piperazine-1-carboxylate] |  |  |  | 45% | 4200 nM
COc1cc2nc(C)nc(NC(C)c3ccc(-c4ccccc4CNc4ccccc4)s3)c2cc1OC (centres unmarked) [Example 362, 6,7-dimethoxy-2-methyl-N-[1-(5-{2-[(phenylamino)methyl]phenyl}thiophen-2-yl)ethyl]quinazolin-4-amine] |  |  | 27% | 26% | 
COCCNCc1ccccc1-c1ccc(C(C)Nc2nc(C)nc3cc(OC)c(OC)cc23)s1 (centres unmarked) [Example 369, 6,7-dimethoxy-N-{1-[5-(2-{[(2-methoxyethyl)amino]methyl}phenyl)thiophen-2-yl]ethyl}-2-methylquinazolin-4-amine] | 152 nM | 99.5 nM |  |  | 
COc1cc2nc(C)nc(NC(C)c3ccc(-c4ccccc4CNC4CC4)s3)c2cc1OC (centres unmarked) [Example 370, N-[1-(5-{2-[(cyclopropylamino)methyl]phenyl}thiophen-2-yl)ethyl]-6,7-dimethoxy-2-methylquinazolin-4-amine] | 352 nM | 270 nM |  |  | 
COC(=O)c1ccc2nc(C)nc(N[C@H](C)c3cccc(Cl)c3)c2c1 [Example 371, methyl 4-{[(1R)-1-(3-chlorophenyl)ethyl]amino}-2-methylquinazoline-6-carboxylate] | 2420 nM | 1890 nM |  |  | 
Cc1nc(N[C@H](C)c2cccc(Cl)c2)c2cc(CO)ccc2n1 [Example 373, (4-{[(1R)-1-(3-chlorophenyl)ethyl]amino}-2-methylquinazolin-6-yl)methanol] | 6200 nM | 1520 nM |  |  | 
COc1cc2nc(C)nc(NC(C)c3ccc(-c4ccccc4C(O)c4ccccc4)s3)c2cc1OC (centres unmarked) [Example 374, [2-(5-{1-[(6,7-dimethoxy-2-methylquinazolin-4-yl)amino]ethyl}thiophen-2-yl)-phenyl](phenyl)methanol] | 2550 nM | 1600 nM |  |  | 

Structure (SMILES) | IC50 [1, 3] | IC50 [2] | inhibition at 20 µM ([1]; high GTP) | inhibition at 20 µM [2] | IC50 [1, 4]
COc1cc2nc(C)nc(NC(C)c3ccc(-c4ccccc4C(O)Cc4ccccc4)s3)c2cc1OC (centres unmarked) [Example 376, 1-[2-(5-{1-[(6,7-dimethoxy-2-methylquinazolin-4-yl)amino]ethyl}thiophen-2-yl)phenyl]-2-phenylethanol] | 18400 nM | 5460 nM |  |  | 
CCCCC(O)c1ccccc1-c1ccc(C(C)Nc2nc(C)nc3cc(OC)c(OC)cc23)s1 (centres unmarked) [Example 377, 1-[2-(5-{1-[(6,7-dimethoxy-2-methylquinazolin-4-yl)amino]ethyl}thiophen-2-yl)phenyl]pentan-1-ol] | 9750 nM | 5140 nM |  |  | 
C#CC(O)c1ccccc1-c1ccc(C(C)Nc2nc(C)nc3cc(OC)c(OC)cc23)s1 (centres unmarked) [Example 378, 1-[2-(5-{1-[(6,7-dimethoxy-2-methylquinazolin-4-yl)amino]ethyl}thiophen-2-yl)phenyl]prop-2-yn-1-ol] | 1050 nM | 430 nM |  |  | 
COc1cc2nc(C)nc(NC(C)c3ccc(-c4ccccc4C(O)C(C)C)s3)c2cc1OC (centres unmarked) [Example 379, 1-[2-(5-{1-[(6,7-dimethoxy-2-methylquinazolin-4-yl)amino]ethyl}thiophen-2-yl)phenyl]-2-methylpropan-1-ol] | 1350 nM | 568 nM |  |  | 
COc1cc2nc(C)nc(NC(C)c3ccc(-c4ccccc4C(O)C(F)(F)F)s3)c2cc1OC (centres unmarked) [Example 380, 1-[2-(5-{1-[(6,7-dimethoxy-2-methylquinazolin-4-yl)amino]ethyl}thiophen-2-yl)phenyl]-2,2,2-trifluoroethanol] | 1600 nM | 937 nM |  |  | 
COc1cc2nc(C)nc(NC(C)c3cc(C)c(-c4cnc5n4CCC5)s3)c2cc1OC (centres unmarked) [Example 381, N-{1-[5-(6,7-dihydro-5H-pyrrolo[1,2-a]imidazol-3-yl)-4-methylthiophen-2-yl]ethyl}-6,7-dimethoxy-2-methylquinazolin-4-amine] | 1900 nM | 490 nM |  |  | 
COc1cc2nc(C)nc(NC(C)c3ccc(-c4ccc(F)cc4CNC(=O)CO)s3)c2cc1OC (centres unmarked) [Example 382, N-[2-(5-{1-[(6,7-dimethoxy-2-methylquinazolin-4-yl)amino]ethyl}thiophen-2-yl)-5-fluorobenzyl]-2-hydroxyacetamide] | 931 nM | 253 nM |  |  | 
COCC(=O)NCc1cc(F)ccc1-c1ccc(C(C)Nc2nc(C)nc3cc(OC)c(OC)cc23)s1 (centres unmarked) [Example 383, N-[2-(5-{1-[(6,7-dimethoxy-2-methylquinazolin-4-yl)amino]ethyl}thiophen-2-yl)-5-fluorobenzyl]-2-methoxyacetamide] | 3620 nM | 984 nM |  |  | 
COc1cc2nc(C)nc(NC(C)c3ccc(-c4cc(Cl)ccc4CNC(=O)OC(C)(C)C)s3)c2cc1OC (centres unmarked) [Example 387, tert-butyl [4-chloro-2-(5-{1-[(6,7-dimethoxy-2-methylquinazolin-4-yl)amino]ethyl}-thiophen-2-yl)benzyl]carbamate] | 1660 nM | 1170 nM |  |  | 
COc1cc2nc(C)nc(N[C@H](C)c3cccc(-c4ccnc(O)c4)c3)c2cc1OC [Example 388, 4-(3-{(1R)-1-[(6,7-dimethoxy-2-methylquinazolin-4-yl)amino]ethyl}phenyl)pyridin-2-ol] | 801 nM | 205 nM |  |  | 
COc1cc2nc(C)nc(NC(C)c3cccc(OCc4ccccc4)c3)c2cc1OC (centres unmarked) [Example 389, N-{1-[3-(benzyloxy)phenyl]ethyl}-6,7-dimethoxy-2-methylquinazolin-4-amine] | 14900 nM | 6690 nM |  |  | 
Cc1nc(N[C@H](C)c2cccc(Cl)c2)c2cc(C(C)(C)O)ccc2n1 [Example 392, 2-(4-{[(1R)-1-(3-chlorophenyl)ethyl]amino}-2-methylquinazolin-6-yl)propan-2-ol] | 1190 nM | 338 nM |  |  | 
COc1cc2nc(C)nc(N[C@H](C)c3cccc(-c4ccccc4CC(N)=O)c3)c2cc1OC [Example 393, 2-(3′-{(1R)-1-[(6,7-dimethoxy-2-methylquinazolin-4-yl)amno]ethyl}biphenyl-2-yl)acetamide] | 975 nM | 244 nM |  |  | 
COc1cc2nc(C)nc(NC(C)c3ccc(-c4ccccc4CC(N)=O)s3)c2cc1OC (centres unmarked) [Example 394, 2-[2-(5-{1-[(6,7-dimethoxy-2-methylquinazolin-4-yl)amino]ethyl}thiophen-2-yl)phenyl]acetamide] | 1620 nM | 405 nM |  |  | 
COc1cc2nc(C)nc(NC(C)c3ccc(-c4ccc(O)nc4)s3)c2cc1OC (centres unmarked) [Example 395, 5-(5-{1-[(6,7-dimethoxy-2-methylquinazolin-4-yl)amino]ethyl}thiophen-2-yl)pyridin-2-ol] | 1060 nM | 984 nM |  |  | 
